The test system of data set [1] is rat primary culture cortical neurons. Briefly: TBOA excitotoxicity assay (LDH release) in cortical neuron cultures. In kind it is cell-based. The procedure:
All animal protocols described here and below were approved by the Institutional Animal Care and Use Committee of the University of Pittsburgh School of Medicine. Cortical neurons were prepared from embryonic day 16-17 rats of either sex. Pregnant donor rats (Charles River Laboratories) were killed by gradual CO2 inhalation, an American Veterinary Medical Association approved protocol (Leary et al., 2013). Cortices were dissociated with trypsin, and plated at 670,000 cells per well on poly-L-ornithine glass coverslips in six-well plates. Non-neuronal cell proliferation was inhibited with 1-2 μM cytosine arabinoside at 15 days in vitro (DIV). All cortical culture experiments shown here were performed on 18-25 DIV cultures.
DL-threo-β-benzyloxaspartate (TBOA; Tocris Bioscience) excitotoxicity assays were performed on cortical culture coverslips transferred into 24-well plates containing 10 mM HEPES, 0.01% bovine serum albumin (BSA)-supplemented MEM without phenol red (MHB). […] Following this exposure, external medium was collected for LDH colorimetric measurements using a toxicity kit (Sigma-Aldrich), as previously described 12. Each experiment contained three replicates of four conditions (with/without TBOA, with/without treatment). Relative toxicity was quantified as the LDH ratio of TBOA-treated over vehicle control values within each experiment. […]

The test system of data set [2] is primary rat cortical neuron cultures. Kind of data set: LDH toxicity assay screening for innate toxicity. In kind it is cell-based. As to conditions: up to 30 μM for 24 hr.
For data set [3], the system named is L5B corticocollicular neurons. Briefly: Slice electrophysiology, intrinsic properties of L5B corticocollicular neurons. In kind it is cell-based, mouse. As to conditions: 10 min incubation in 10 μM cpd5. The procedure:
Stereotaxic injections for electrophysiology. Male or female ICR mice P21-30 (Jackson Laboratory) were anesthetized with 3% isoflurane (1.5% maintenance) and placed on the stereotaxic frame (Kopf). Core body temperature was maintained at ˜37° C. with a heating pad and eyes were protected with ophthalmic ointment. Lidocaine (1%) was injected under the scalp and an incision was made into the skin at the midline to expose the skull. […] A volume of ˜0.12 μl fluorospheres was pressure injected (25 psi, 10 ms duration) from capillary pipettes (Drummond Scientific) with a Picospritzer (Parker-Hannifin). After injection, the pipette was held in the brain for 2 min before slowly withdrawing. The scalp of the mouse was closed with cyanoacrylate adhesive. Mice were injected with the non-steroidal anti-inflammatory drug carprofen at 5 mg/kg (Henry Schein Animal Health) for 24 hours prior to and 48 hours after surgery. Mice were monitored for signs of postoperative stress and pain.
Slice electrophysiology. Slice electrophysiology experiments were performed in mice at least 2 days after fluorospheres injections. Following anesthesia with isoflurane, mice were immediately decapitated. Brains were rapidly removed and coronal slices (300 μm) containing the auditory cortex were prepared in a cutting solution at 1° C. using a Vibratome (VT1200 S; Leica). For evoked EPSC recordings, the cutting solution, pH 7.4, ˜300 mOsm, contained the following (in mM): 2.5 KCl, 1.25 NaH2PO4, 25 NaHCO3, 0.5 CaCl2, 7 MgCl2, 7 Glucose, 205 sucrose, 1.3 ascorbic acid, and 3 sodium pyruvate (bubbled with 95% O2/5% CO2). For evaluation of corticocollicular neuron electrical properties, the cutting solution, pH ˜7.4, contained the following (in mM): 135 NMDG, 1 KCl, 1.2 KH2PO4, 1.5 MgCl2, 1.5 CaCl2, 20 NaHCO3, 10 D-Glucose. The slices were then transferred and incubated at 34° C. for 30 min (bubbled with 95% O2/5% CO2) prior to recording. The incubating and recording solution contained the following (in mM): 125 NaCl, 2.5 KCl, 1.25 NaH2PO4, 25 NaHCO3, 2 CaCl2, 1 MgCl2, 10 D-Glucose, 1.3 ascorbic acid, and 3 sodium pyruvate (bubbled with 95% O2/5% CO2). Slices were stored at room temperature until the time of recording. The flow rate of the ACSF was ˜1.5 ml/min, and its temperature was maintained at 34° C. using an in-line heating system (Warner). Both slice electrophysiology experiments were carried out using MultiClamp-700B amplifier equipped with Digidata-1440A A/D converter and Clampex (Molecular Devices). Data were sampled at 10 kHz and Bessel filtered at 4 kHz. Pipette capacitance was compensated and series resistance for recordings was lower than 15 MΩ and measured throughout the experiments. Recordings were excluded from further analysis if the series resistance changed by more than 15% compared to the baseline period.
All data for intrinsic properties were acquired and analyzed within the Ephus software package. Series resistance was determined in voltage-clamp mode (command potential set at −70 mV) by giving a −5 mV voltage step. […] The difference between baseline and steady-state hyperpolarized current (ΔI) was used to calculate Rinput using the following formula: Rinput=−5 mV/ΔI−Rseries. The average resting membrane potential (Vm) was calculated by holding the neuron in voltage-follower mode (current clamp, at I=0) ˜2 minutes after breaking in and averaging the membrane potential over the next 30 sec. Subthreshold and suprathreshold membrane responses in current clamp were elicited by injecting −200 to +400 pA in 50 pA increments (baseline Vm was maintained at −70 mV, by injecting the required current, if necessary). Sag was measured during the −200 pA current injection, using the formula, SAG=(Vmin−Vsteady-state)/Vsteady-state. The first resulting action potential (AP) at rheobase was analyzed for AP width. AP width was calculated as the full-width at the half-maximum amplitude of the AP. […]

Data set [4] has as its target syntaxin 1A / Kv2.1 peptides containing the C1aB region (Homo sapiens, UniProt Q16623). Briefly: Peptide spot array far-Western assay of syntaxin binding to Kv2.1 C1a peptides. More on the design: species or system rat. From the text: Peptide spot array and far-Western assay. Peptide spot arrays (15 mers) spanning the proximal C-terminus residues 451-540 of rat Kv2.1 were constructed using the Spots-synthesis method. Standard 9-fluorenylmethoxy carbonyl (Fmoc) chemistry was used to synthesize the peptides and spot them onto nitrocellulose membranes prederivatized with a polyethylene glycerol spacer (Intavis). Fmoc protected and activated amino acids were spotted in quadruplicates on 20-30 arrays on 75 by 25 mm membranes using an Intavis MultiPep robot. The nitrocellulose membrane containing the immobilized peptides were rehydrated in Tris-buffered 0.1% Tween 20 (TBST) for 10 min, and then blocked for 1 h at room temperature (RT) with gentle shaking in TBST containing 5% (w/v) nonfat dry milk and then incubated with enriched STX1A protein containing the indicated concentrations of cpd5 for 1 h at RT with gentle shaking. Next, the membrane was incubated in primary antibody for syntaxin 1A (Millipore, catalog #AB5820-50UL, RRID:AB_2216165) for 2 h at RT with gentle shaking, followed by washing with TBST. Finally, the membrane was incubated in secondary antibody (goat anti-rabbit DyLight 800, catalog #355571, Thermo Fisher Scientific) for 45 min, washed for 3 times 5 min in TBST, and visualized by infrared fluorescence (Li-Cor). Similar procedures were followed for the alanine scan study with 9-mers.

syntaxin 1A / Kv2.1 peptides containing the C1aB region, sequence (Q16623 whole entry, species assumed, the tested form may be a part): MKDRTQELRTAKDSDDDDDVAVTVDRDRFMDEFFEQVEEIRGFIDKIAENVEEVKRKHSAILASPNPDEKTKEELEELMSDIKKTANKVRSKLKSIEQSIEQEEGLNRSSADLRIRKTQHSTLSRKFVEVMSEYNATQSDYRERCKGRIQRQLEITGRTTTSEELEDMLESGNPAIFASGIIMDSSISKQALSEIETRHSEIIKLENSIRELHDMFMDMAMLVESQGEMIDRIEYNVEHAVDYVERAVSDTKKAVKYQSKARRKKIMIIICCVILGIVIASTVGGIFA

As for `COc1ccc(CNC(=O)Nc2cccc(-c3nc4ccccc4s3)c2)cc1OC` [cpd5, 3-[3-(1,3-benzothiazol-2-yl)phenyl]-1-[(3,4-dimethoxyphenyl)methyl]urea], in data set [1] (10 μM Cpd5, pre-loading 1 hr and co-incubation, overnight TBOA 60 μM), the “TBOA toxicity (neuroprotection)” value is “significantly diminished TBOA toxicity”. Further, the “relative toxicity (LDH ratio of TBOA-treated over vehicle control)” value in data set [1] (10 μM compound, 1 hr preincubation and coincubation, 75 μM TBOA, 24 hr, mean±SEM) was 1.84±0.42. Moreover, in data set [2], the “innate toxicity (LDH)” value is recorded as “no innate toxicity”. For the same compound, the “innate toxicity (LDH)” value in data set [2] (listed as Cpd5) is given as “No neurotoxicity was observed”. Besides, in data set [3], the action potential threshold entry is “no significant effect”, the action potential width entry is recorded as “no significant effect”, the firing rate entry is recorded as “no significant effect” and the input resistance entry is given as “lack of significant effect”. Besides, in data set [3], the resting membrane potential result was “lack of significant effect” and the “sag ratio (V2/V1)” value is listed as “lack of significant effect”. In addition, in data set [4] (Cpd5 100 μM), the “reduction of Kv2.1 peptides binding to syntaxin at peak values” is “up to 60%”. The IC50 in data set [4] (percent inhibition compared to 0.1% DMSO, variable slope fit, read-out: IC50 for inhibition of syntaxin binding to peptides 22-28 (full C1aB domain) of the peptide array) turned out to be 5.5 µM.

Values taken from patent US12226400B2, “Neuroprotective disruption of Kv2.1/syntaxin interaction by small molecules” (UNIVERSITY OF PITTSBURGH-OF THE COMMONWEALTH SYSTEM OF …, priority 2018, dated 2025).
